Source: the supplement of paper PMC13380429
± gives the standard deviation of the averaged measurements.

How the values were obtained:
Conditions in all cases: 72 h
Caco-2 [1] = assay: cell viability relative to DMSO; higher = less toxic
Calu-3 [2] = assay: as above
HepG2 [3] = assay: as above
U2OS [4] = assay: as above
Vero E6 [5] = assay: as above
Caco-2 [6] = assay: relative viability EC50 (midpoint between 100% and the lowest measured viability); higher = less toxic
Calu-3 [7] = assay: as above
HepG2 [8] = assay: as above
U2OS [9] = assay: as above
Vero E6 [10] = assay: as above
Caco-2 [11] = assay: drug sensitivity score (DSS) for viability; higher = more toxic; extreme values may be limits of the assay
Calu-3 [12] = assay: as above
HepG2 [13] = assay: as above
U2OS [14] = assay: as above
Vero E6 [15] = assay: as above

Row | SMILES | cell viability (Caco-2 [1]; 1 nM) [%] | cell viability (Caco-2 [1]; 10 nM) [%] | cell viability (Caco-2 [1]; 100 nM) [%] | cell viability (Caco-2 [1]; 1000 nM) [%] | cell viability (Caco-2 [1]; 10000 nM) [%] | cell viability (Calu-3 [2]; 1 nM) [%] | cell viability (Calu-3 [2]; 10 nM) [%] | cell viability (Calu-3 [2]; 100 nM) [%] | cell viability (Calu-3 [2]; 1000 nM) [%] | cell viability (Calu-3 [2]; 10000 nM) [%] | cell viability (HepG2 [3]; 1 nM) [%] | cell viability (HepG2 [3]; 10 nM) [%] | cell viability (HepG2 [3]; 100 nM) [%] | cell viability (HepG2 [3]; 1000 nM) [%] | cell viability (HepG2 [3]; 10000 nM) [%] | cell viability (U2OS [4]; 1 nM) [%] | cell viability (U2OS [4]; 10 nM) [%] | cell viability (U2OS [4]; 100 nM) [%] | cell viability (U2OS [4]; 1000 nM) [%] | cell viability (U2OS [4]; 10000 nM) [%] | cell viability (Vero E6 [5]; 1 nM) [%] | cell viability (Vero E6 [5]; 10 nM) [%] | cell viability (Vero E6 [5]; 100 nM) [%] | cell viability (Vero E6 [5]; 1000 nM) [%] | cell viability (Vero E6 [5]; 10000 nM) [%] | relative viability EC50 (Caco-2 [6]) [µM] | relative viability EC50 (Calu-3 [7]) [µM] | relative viability EC50 (HepG2 [8]) [µM] | relative viability EC50 (U2OS [9]) [µM] | relative viability EC50 (Vero E6 [10]) [µM] | drug sensitivity score (Caco-2 [11]) | drug sensitivity score (Calu-3 [12]) | drug sensitivity score (HepG2 [13]) | drug sensitivity score (U2OS [14]) | drug sensitivity score (Vero E6 [15])
1 | C=C[C@@]1(C)CC(=O)[C@]2(O)[C@@]3(C)[C@@H](O)CCC(C)(C)[C@@H]3[C@H](O)[C@H](OC(C)=O)[C@@]2(C)O1 [colforsin] | 97.9 ± 2.7 | 99.3 ± 1.3 | 100 ± 3.5 | 109 ± 6.7 | 118 ± 10 | 106 ± 14 | 109 ± 11 | 103 ± 3 | 106 ± 2.1 | 97.5 ± 7.2 | 110 ± 8.1 | 106 ± 3.4 | 101 ± 3.2 | 96.4 ± 4.8 | 99.2 ± 3.2 | 101 ± 1.1 | 101 ± 5 | 95.9 ± 0.28 | 100 ± 1.4 | 96.65 ± 0.64 | 97.7 ± 6.5 | 101 ± 14 | 103 ± 4.5 | 89.9 ± 3.5 | 85.7 ± 4.3 | > 10 | > 10 | > 10 | > 10 | > 10 | 0 | 0 | 0 | 0 | 0.4 ± 0.28
2 | CC(C)[C@H](N)C(=O)OCC(CO)OCn1cnc2c(=O)nc(N)[nH]c21 (mixture of isomers) [valganciclovir] | 94.3 | 107 | 103 | 114 | 80 | 107 | 101 | 108 | 104 | 91.8 | 97.9 | 95 | 97.3 | 95.8 | 90.5 | 90.7 | 102 | 98.2 | 104 | 108 | 99.3 | 91.8 | 103 | 97.4 | 97.4 | > 10 | > 10 | > 10 | > 10 | > 10 | 0.3 | 0 | 0 | 0 | 0
3 | Cc1c(-c2cnccn2)ssc1=S [oltipraz] | 94.2 | 96 | 103 | 106 | 101 | 94 | 94.7 | 106 | 96.5 | 101 | 93.4 | 103 | 94.2 | 94.7 | 105 | 98.3 | 96.5 | 101 | 96.4 | 104 | 88.1 | 95.2 | 88.7 | 93 | 104 | > 10 | > 10 | > 10 | > 10 | > 10 | 0 | 0 | 0 | 0 | 0
4 | O=C(Nc1ccc(C(F)(F)F)cn1)N1CCN(c2ncccc2C(F)(F)F)CC1 | 97.9 | 99.3 | 97 | 96 | 92.1 | 99.3 | 104 | 93 | 100 | 92.8 | 108 | 91.7 | 105 | 98.4 | 101 | 94.1 | 98.5 | 102 | 99.4 | 100 | 102 | 93.9 | 94.9 | 101 | 103 | > 10 | > 10 | > 10 | > 10 | > 10 | 0 | 0 | 0 | 0 | 0
5 | CCO[C@@H]1OC(=O)C[C@@H]1NC(=O)[C@@H]1CCCN1C(=O)[C@@H](NC(=O)c1ccc(N)c(Cl)c1)C(C)(C)C [VX-765] | 97.7 | 104 | 117 | 98 | 86 | 111 | 93.8 | 90.5 | 95.5 | 98.6 | 95.5 | 103 | 88.4 | 88.3 | 92.2 | 98.2 | 104 | 94.7 | 100 | 98.8 | 98.8 | 102 | 95.2 | 93.9 | 100 | > 10 | > 10 | > 10 | > 10 | > 10 | 0.3 | 0 | 0.9 | 0 | 0
6 | O=C(COP(=O)(O)O)[C@@H](O)[C@H](O)[C@H](O)COP(=O)(O)O [fosfructose] | 107 | 118 | 91.9 | 94.7 | 93.5 | 101 | 101 | 99.9 | 98.8 | 97.2 | 108 | 83 | 73.1 | 99.1 | 95.4 | 97.9 | 106 | 106 | 105 | 99.3 | 97.6 | 98.1 | 102 | 102 | 94.7 | > 10 | > 10 | > 10 | > 10 | > 10 | 0 | 0 | 0 | 0 | 0
7 | C#CCN[C@@H]1CCc2ccccc21 [rasagiline] | 97 | 98 | 91.5 | 99 | 94.2 | 87 | 96.3 | 100 | 97.3 | 99.6 | 103 | 117 | 110 | 104 | 99.6 | 99.8 | 105 | 97.5 | 106 | 97.2 | 106 | 104 | 102 | 104 | 97.1 | > 10 | > 10 | > 10 | > 10 | > 10 | 0 | 0 | 0 | 0 | 0
8 | Cn1cnc2c1c(=O)[nH]c(=O)n2C [theobromine] | 99.1 | 110 | 106 | 121 | 104 | 91.3 | 90.3 | 100 | 97.4 | 98.8 | 87.6 | 79.8 | 99.3 | 95.7 | 95.6 | 92.6 | 101 | 95.7 | 97.6 | 100 | 101 | 92.7 | 103 | 98 | 103 | > 10 | > 10 | > 10 | > 10 | > 10 | 0 | 0 | 0 | 0 | 0
9 | CC[C@H](C)C[C@H](C)CCCCCCCCC(=O)N[C@H]1C[C@@H](O)[C@@H](NCCN)NC(=O)[C@@H]2[C@@H](O)CCN2C(=O)[C@H]([C@H](O)CCN)NC(=O)[C@H]([C@H](O)[C@@H](O)c2ccc(O)cc2)NC(=O)[C@@H]2C[C@@H](O)CN2C(=O)[C@H]([C@@H](C)O)NC1=O [caspofungin] | 88.2 ± 4.6 | 96.5 ± 3 | 115 ± 24 | 90.2 ± 18 | 95 ± 1.3 | 104 ± 13 | 104 ± 14 | 104 ± 1.4 | 96.5 ± 5.9 | 89.5 ± 0.85 | 91.8 | 106 | 110 | 116 | 103 | 95.2 ± 2.2 | 95.6 ± 0.14 | 98 ± 1.3 | 98.2 ± 6.6 | 99 ± 1.6 | 98.1 ± 1.8 | 99 ± 3.3 | 98.85 ± 0.64 | 95.1 ± 1.6 | 101 ± 7.1 | > 10 | > 10 | > 10 | > 10 | > 10 | 1.35 ± 1.9 | 0.1 ± 0.14 | 0 | 0 | 0
10 | COC(=O)[C@@H](N)CS [mecysteine] | 96.1 | 95 | 97.7 | 99.8 | 102 | 104 | 106 | 87.2 | 109 | 99.2 | 108 | 107 | 99.6 | 91.1 | 105 | 98.2 | 101 | 96.3 | 100 | 95.3 | 95.8 | 97.5 | 98.5 | 88.6 | 101 | > 10 | > 10 | > 10 | > 10 | > 10 | 0 | 0 | 0 | 0 | 0
11 | C[C@]12C=CC(=O)C=C1CC[C@@H]1[C@@H]2CC[C@]2(C)OC(=O)CC[C@@H]12 [Testolactone] | 94 | 97.1 | 87.1 | 91.1 | 93.8 | 98.5 | 97.3 | 101 | 99.5 | 105 | 66.7 | 103 | 93.1 | 94.1 | 111 | 95.8 | 98.2 | 95.4 | 102 | 91.8 | 98.5 | 91.3 | 94.9 | 88.1 | 96.8 | > 10 | > 10 | > 10 | > 10 | > 10 | 0 | 0 | 0 | 0 | 0
